Consider 5 substances from US9657059B2, “Immune system modulators” (Canimguide Therapeutics AB, priority 2013, dated 2017).

Assay [1] relates to PBMCs from a healthy control. The experiment in a line: PBMC activation (CD69, CD71) by flow cytometry in RPMI plus 10% human AB serum. The settings on record: 40 μg/mL; for PBMC activation, cells with enhanced CD69: 24 hours. Format: cell-based. The procedure: FIG. 41 is a series of graphs illustrating effects of modified peptides on activation of PBMCs from healthy control person. PBMCs were incubated with the peptides (40 μg/mL) for 24 hours in RPMI plus 10% human AB serum. Activation is determined as percentage of cells with enhanced marker CD69 using flow cytometry. FIG. 41A illustrates results of two experiments (410 and 412) performed for each peptide. FIG. 41B illustrates results of two experiments (414 and 416) performed for each peptide.
FIG. 42 is a series of graphs illustrating effects of the full length peptide P28R and the 6 amino acid central sequence (32230, FFVKLS, SEQ ID NO: 62) in culture medium containing normal human AB serum. Activation is determined as percentage of cells with enhanced marker CD69 or CD71 using flow cytometry. PBMCs were incubated with the peptides (40 μg/mL) for 24 hours in RPMI plus 10% human AB serum. FIG. 42A illustrates the results of two experiments (420 and 422) performed for each peptide. FIG. 42B illustrates the results of two experiments (424 and 426) performed for each peptide.
FIG. 46 is a series of graphs illustrating Effect of modified peptides on activation of PBMCs from healthy control person. […] PBMCs were incubated with the peptides (40 μg/mL) for 48 hours in RPMI plus 10% human AB serum.
Based on the positional scan data, it is contemplated that substitutions of SEQ ID NO: 2 can be useful in accordance with some embodiments herein for binding P3028, de-blocking the LFA-1 receptor from P3028-mediated inhibition (e.g. displacing bound P3028 peptide and P3028-structure containing molecules from the LFA-1 receptor), and/or stimulating immune cells. The activity of peptide P28R (SEQ ID NO: 2) and modifications of P28R was studied in a human ex vivo model using PBMCs from a healthy control human in short term cultures, and with PBMC activation measured as a percentage of cells with enhanced CD69 (see Example 37).
As P28R (SEQ ID NO: 2) can bind to P3028 and stimulate PBMC's from healthy controls in short term cultures, for example when in a culture medium comprising RPMI plus 10% normal human AB serum (see Example 37), it is contemplated that truncations of P28R in accordance with some embodiments herein can be useful for binding to inhibitors of any one or more of the peptides listed in Tables 1-4. Truncations of P28R were assessed for their ability to activate PBMC's (see Example 38). PBMCs were incubated with the peptides (40 μg/mL) for 24 hours in RPMI plus 10% human AB serum. PBMC activation was measured as percent cells with enhanced expression of either CD69 (FIG. 42A) or CD71 (FIG. 42B) using flow cytometry. […] However, PBMCs were also incubated with the peptides in cancer sera from dogs, or in caner sera from human cancer patients (see FIG. 43). […] As such, it is contemplated that in accordance with some embodiments herein, P28R, P28 core, or combinations of these peptides are useful for stimulating immune cells in the serum of a subject that has cancer.
Effects of modified peptides on the activation of PBMCs from a healthy control person were assessed (see Example 41). PBMCs were incubated with the peptides (40 μg/mL) for 48 hours in RPMI plus 10% human AB serum, and PBMC activation was determined by flow cytometry based on the percentage of cells with enhanced marker CD69 or CD71. Peptides P28R (SEQ ID NO: 2), P28 core (peptide 32230) (SEQ ID NO: 62), 32251 ([…]) (SEQ ID NO: 592), 32814 ([…]) (SEQ ID NO: 586), 32815 ([…]) (SEQ ID NO: 595), 32665 ([…]) (SEQ ID NO: 593), and 32819 ([…](C(PEG24))) (SEQ ID NO: 594) were tested. […] Accordingly, it is contemplated herein that
(In flow cytometry, cells or beads pass a laser one at a time.)

For another assay, the system named is PBMCs. The experiment in a line: PBMC activation (CD69/CD71, flow cytometry) in RPMI plus 10% human AB serum. Format: cell-based. The settings on record: healthy control person, 40 μg/mL; for PBMC activation, cells with enhanced CD69: 24 hours. As for the experimental part: The activity of peptide P28R (SEQ ID NO: 2) and modifications of P28R was studied in a human ex vivo model using PBMCs in short term cultures, 24 or 48 hours. Effects of P28R and modifications of P28R on PBMC's from a healthy control person were studied. Activation was measured as percentage of cells with enhanced marker CD69 using flow cytometry. PBMCs were incubated with the peptides (40 μg/mL) for 24 hours in RPMI plus 10% human AB serum.
As observed in Example 37, P28R (SEQ ID NO: 2) can stimulate PBMC's from healthy controls in short term cultures when RPMI plus 10% normal human AB serum is used as culture medium. Truncations of P28R were also assessed for their ability to activate PBMC's. PBMCs were incubated with the peptides (40 μg/mL) for 24 hours in RPMI plus 10% human AB serum. PBMC activation was measured as percent cells with enhanced expression of either CD69 (FIG. 42A) or CD71 (FIG. 42B) using flow cytometry. Two experiments were performed for each peptide.
Effects of modified peptides on activation of PBMCs from healthy control person were assessed. Activation was determined as percentage of cells with enhanced marker CD69 or CD71 using flow cytometry. PBMCs were incubated with the peptides (40 μg/mL) for 48 hours in RPMI plus 10% human AB serum.

The next assay concerns the target P3028 (SEQ ID NO: 185) (Homo sapiens, UniProt P02768). The assay is described as follows: PEPSCAN (rampo) ELISA: binding of His-tagged P3028 to P28R variants on chip. As for the experimental part:
Based on the structure of peptide P28R, additional peptides were identified that bind to P3028. The additional binders included deletions, truncations, and or amino acid substitutions of peptide P28R. Binding of peptides to P3028 was assayed using PEPSCAN technology. PEPSCAN technology, or “rampo” assays are biochemical binding assays, details of which are provided below:
A peptide microarray screening technology was used to measure binding of P28R (SEQ ID NO: 2) and variants of P28R to P3028 (SEQ ID NO: 185). In this technology libraries of synthetic peptides are synthesized and covalently linked onto polypropylene microarray chips. The linear peptides were synthesized onto credit-card format polypropylene cards (455 peptide formats/card) as described by (Timmerman et al., 2004) using standard Fmoc-chemistry using hexamethylenediamine (HMDA) as linker and deprotection using trifluoroacetic acid (TFA) with scavengers.
The binding of His-tagged P3028 to each peptide on the card was tested in an ELISA assay. The 455-well credit card format polypropylene cards containing the covalently linked peptides were incubated with His-tagged P3028 peptide (PGE73) solution consisting of 0.5 μg/mL diluted in blocking solution (4% horse serum, 5% ovalbumin (w/v) in PBS/1% TWEEN reagent). After washing, the peptides were incubated with a monoclonal mouse anti-His-tag antibody (Novagen, 70796-3, diluted 1/1000 in the incubation buffer) and subsequently after washing with a rabbit-anti-mouse antibody peroxidase (Rampo) conjugate (Southern Biotech, 6175-05, diluted 1/1000), for one hour at 25° C. After washing, the peroxidase substrate 2,2′-azine-di-3-ethylbenzthiazoline sulfonate (ABTS) and 2 μL of 3% H2O2 were added. The binding capacity of the mAb was measured as a color development at 405 nm (optical density, OD405). The color development was quantified with a charge-coupled device (CCD)—camera and an image processing system.
The OD405-values obtained by a CCD-camera was considered as raw data values (“rampo values,” “rampo units,” or “rampo scores”). The values mostly ranged from 0 to 3000, a log scale similar to 1 to 3 of a standard 96-well plate ELISA-reader. First the CCD-camera made a picture of the card before peroxidase coloring and then again a picture after the peroxidase coloring. […] These values were copied into an excel file and labeled as a raw data file. One follow-up manipulation was allowed. Sometimes a well can contain an air-bubble resulting in a false-positive value. If manual inspection of the cards detect an air-bubble the value are set to 0 for that well.
A library of peptides tested for binding to peptide P3028 included all substitutions for each position of the peptide P28R (SEQ ID NO: 2) (i.e., 19 substitutions for each position). The results of the binding experiments are shown in FIGS. 27, 28, 29 and 30 and Table 5.1. […] P28R had rampo values ranging between 262 and 460 with a mean value of 370. […] In addition, M and S in position 7 (SEQ ID NOs: 9 and 10, respectively), and Q and M in position 11 (SEQ ID NOs: 15 and 16, respectively) all have rampo values over 700.
For each position of P28R, the rampo scores of the group of 19 different peptides containing an L-amino acid substitution were compared to the rampo score of a control sample P28R peptide (SEQ ID NO: 2) for that group. Single-amino acid substitutions having a rampo score greater than or substantially equivalent to P28R were identified. […]

The next assay deals with P3028 (Homo sapiens, UniProt P02768). The experiment in a line: PEPSCAN rampo assay: binding of P3028 to support-bound peptides, sandwich ELISA. The settings on record: binding of P3028 to peptide on solid phase. The source says:
Based on the ability of P28R to bind the P3028 sequence/structure, unblock the LFA-1 receptor, and ameliorate the P3028 sequence/structure-dependent immunosuppression, P28R was used as a template compound to identify additional compounds that bind to and sequester P3028. Variants of the P28R structure were synthesized, and tested for the ability to bind P3028 using PEPSCAN technology (see Example 12). A library of peptides that include each genetically-coded amino acid substitution at each amino acid position of P28R (i.e., 19 substitutions for each position) was synthesized. Each peptide was affixed to a support pin, and the peptide library was incubated with P3028. The binding of the candidate inhibitors to P3028 was detected by a sandwich ELISA, where a rabbit anti-mouse peroxidase (rampo) secondary antibody was employed (see Example 12). The binding of each peptide was then assigned a rampo score (see FIG. 27). Peptide P28R had rampo values ranging between about 262 and 460 with a mean value of 370. In some embodiments, the immunoregulatory peptide inhibitor as disclosed herein, is selected for a desired P3028 binding rampo score. In some embodiments, the desired P3028 binding rampo score is greater than or equal to the rampo score of P28R. It is also contemplated that some peptides that bind to P3028 with less affinity than P28R have therapeutic application. Some peptides with binding affinities that are less than P28R, for example, may modulate signal transduction events differently than P28R by virtue of the fact that the affinity to P3028 is less. […] Accordingly, contemplated embodiments include peptides that bind with any affinity to P3028 (e.g., any one or more of the peptides provided in Table 5.1, preferably peptides that modulate the immune system (e.g., modulate, upregulate or down regulate a marker of the immune system or immunosuppression, such as reducing a P3028-mediated inhibition of immune cell proliferation, spreading, migration, or NK-cell cytotoxicity).
It is contemplated that inhibitors of any one or more of the peptides listed in Tables 1-4 can comprise modifications of the P28R (SEQ ID NO: 2) or P28 core (SEQ ID NO: 62) sequence, and further can be useful for reducing inhibition of the LFA-1 receptor, or for stimulating immune cells. To identify modification to inhibitor peptides in accordance with some embodiments herein, positional scan data was used to study the influence of substitution of different types of amino acids in each position of P28R (SEQ ID NO: 2) on the binding of P3028 (SEQ ID NO: 185). Each amino acid in the peptide sequence of P28R (SEQ ID NO: 2) was exchanged with all of the naturally occurring amino acids, and binding of P3028 (SEQ ID NO: 185) to each peptide on a solid phase chip was assessed (see, e.g. Example 36). A number of optional modifications to P28R in accordance with embodiments herein are summarized in Tables 5.3, 5.4, 5.5, 5.6, and 13. Optionally, an inhibitor peptide in accordance with some embodiments herein can comprise one or more of the modifications of Table 5.3 or Table 13. Optionally, an inhibitor peptide comprises a central core of positions 2, 5-11, and 15 as provided in Table 5.3, and the remaining position are omitted or substituted with substantially any amino acid. Optionally, an inhibitor peptide comprises a central core of positions K2, T5-S11, and E15 of SEQ ID NO: 2, and the remaining position are omitted or substituted with substantially any amino acid.
Embodiments of the invention also include immunoregulatory peptide inhibitors that have a specific affinity to P3028 sequences or structures. In some embodiments, the immunoregulatory peptide inhibitors have specific affinity to P3028 sequences or structures as measured by a rampo assay in which the immunoregulatory peptide inhibitors are affixed to a solid phase, P3028 is added, and the enzymatic activity of a rampo secondary antibody is measured so as to detect binding (see Example 12). […]
In general terms: An ELISA detects its analyte on a solid surface through an enzyme-linked reagent.

As for KKLDTFFVYLSLFTER [compound 31135], the “PBMC activation, cells with enhanced CD69” value is “directly stimulate” in assay [1] and “also stimulated immune cells” in the assay on PBMCs.

Turning to RKLDTFFVKLSLFTERRR [compound 32814], the “PBMC activation, cells with enhanced CD69 and CD71” value in assay [1] (48 hours) was “stimulatory effect in short term cultures similar to that of P28R”. The “PBMC activation, enhanced CD69 or CD71” value in the assay with PBMCs (48 hours) is reported as “stimulatory effect in short term cultures similar to that of P28R”.

Consider 391 (KKLDTFFVKLSLFTER) [compound 391], for which the “RAMPO Score” value is recorded as 260 with P3028 (SEQ ID NO: 185) (binding of His-tagged P3028 0.5 μg/mL to chip-bound peptide, OD405 raw value) and 366 in the assay with P3028.

KKLTFFVKLSLFTER [SEQ ID NO: 64]: in the assay with P3028 (SEQ ID NO: 185) (truncations, deletions, glycine substitutions (FIG. 29, 30)), the “rampo score / binding to P3028 compared with P28R” value is “comparable to, or higher than peptide P28R”.

KKLDTVMVKLQLMTER [compound 30680]: the “PBMC activation, cells with enhanced CD69” value in assay [1] is on record as “did not stimulate”; with PBMCs, “induced activation of PBMCs”.
